Results taken from patent US20240099214A1, “PLANT DEFENCE GENE EXPRESSION” (UPL Corporation Limited, priority 2021, published 2024).

What was measured:
[1] = system: E3 Ubiquitin-protein ligase march3 (gene 2, Solyc01g079530.2); assay: qRT-PCR expression of gene 2 in tomato leaves; assay type: in vivo, Tomato ecotype corbarino; design: key: relative expression normalized to a-tubulin housekeeping gene
Protocol: (§1) Tomato ecotype “corbarino” reported to be susceptible to TSWV infection was used in the experiment. Plants were grown in pots in a climatic chamber with a photoperiod of 16/8 hour at 25° C.
(§2) The viral strain (TSWV PV PV-0393) was utilized in the experiment. The virus was mechanically inoculated and propagated on tomato “corbarino”. The inoculum was prepared in an ice-cooled mortar grounding 1 gr of infected tomato tissue in 10 ml of Na-phosphate buffer 0.01M. The fresh prepared inoculum was stored in ice before use. Tomato plants at BBCH16 were dusted with Carborundum 600 mesh and selected leaves were rubbed with some droplets of inoculum. After 5 min. plants were sprayed with sterile water to remove the excess of inoculum and preserve the cell turgor.
(§3) Four treatments were compared: i) Mock inoculated; ii) TSWV; iii) 0.25% Laminarin; iv) 0.25% Laminarin+TSWV. In the last treatment the virus was inoculated 24 hrs after the laminarin application.
(§4) Total RNA was extracted from systemic infected tomato leaves by using the Quick-RNA Plant Kit (Zymo Research) following the manufacturer instructions. The extractions were carried out using three plants after 12 h, 24 h, 48 h, 72 h, 7 days after inoculation. Leaves were instantly frozen in liquid nitrogen after cutting to avoid any deterioration of the sample as well as any defense reaction. The RNA concentration was quantified by measuring the absorbance at 260 nm using a Nanodrop 2000 (Thermofisher). The purity of all of the RNA samples was assessed at an absorbance ratio of OD260/280 and OD260/230, while its structural integrity was checked by agarose gel electrophoresis. Only high-quality RNA with OD 260/280 and OD 260/230>2 was used for subsequent steps. Single-stranded cDNA was synthesized from 1 μg of total RNA using an iScript™ Select cDNA Synthesis Kit and random hexamers as primers (Bio-Rad, Milan, Italy), according to the manufacturer's instructions. Three biological replicates were created from the 3 leaves collected to test 15 genes. Alpha tubulin was used as reference gene.
(§5) qPCR reactions were performed with BioRad (Applied Biosystems, Foster City, CA, USA) using SYBR R Green. Each reaction was performed in 20 μl containing 10 μl of 2× Power SYBR Green PCR Master Mix (Life Technologies), 0.2-0.3 μM primers and cDNA samples diluted 1:20. Each qPCR reaction was performed in triplicate. Reactions were run using the cycling parameter described previously (Reid et al., 2006) and the qPCR data were analyzed by the Ct method (Pfaffl, 2001). In order to analyze the qPCR data, a-tubulin gene was used as housekeeping to determine the relative expression level of the other genes analyzed in this work. For the determination of qPCR efficiency of each primer pairs, a standard curve was performed using the following cDNA dilutions: 1:4, 1:16, 1:64; 1:256 and 1:1024. Every measurement was made in triplicate. The corresponding qPCR efficiencies (E) were calculated for every primer pair with the software 7300 System SDS software (Applied Biosystems, Foster City, CA, USA) according to the equation E=(10−1/slope−1)×100 (Rutledge and Stewart, 2008).
(§6) The significance of the differences between the gene expressions levels were compared by one-way ANOVA (p=0.01) and the means were separated by Tukey post-hoc test using SPSS ver.26 ([…]).

[2] = system: AY093595.1 (gene 13, PR protein); assay: qRT-PCR expression of gene 13 in tomato leaves; assay type: in vivo, Tomato ecotype corbarino; design: key: relative expression normalized to a-tubulin housekeeping gene
Protocol: as §1, §2, §3, §4, §5, §6

[3] = Gene_13, 12 hr, treatment Laminarin
[4] = Gene_13, 12 hr, treatment Laminarin + virus
[5] = Gene_13, 24 hr, treatment Laminarin
[6] = Gene_13, 24 hr, treatment Laminarin + virus
[7] = Gene_13, 48 hr, treatment Laminarin
[8] = Gene_13, 48 hr, treatment Laminarin + virus
[9] = Gene_13, 72 hr, treatment Laminarin
[10] = Gene_13, 72 hr, treatment Laminarin + virus

Work on laminarin yielded an RQ1 ([1]; 12 hr, Laminarin + virus) of 13.056, an RQ2 ([1]; 12 hr, Laminarin + virus) of 23.403 and an RQ3 ([1]; 12 hr, Laminarin + virus) of 12.079. It also gave an RQ mean ([1]; 12 hr, Laminarin + virus) of 16.179, an RQ1 ([1]; 12 hr, Laminarin alone) of 13.140 and an RQ2 ([1]; 12 hr, Laminarin alone) of 19.586. The RQ3 ([1]; 12 hr, Laminarin alone) was 10.706, the RQ mean ([1]; 12 hr, Laminarin alone) was 14.477 and the RQ1 ([1]; 24 hr, Laminarin + virus) was 11.700. For the same substance, the RQ2 ([1]; 24 hr, Laminarin + virus) was 13.596, the RQ3 ([1]; 24 hr, Laminarin + virus) was 12.341 and the RQ mean ([1]; 24 hr, Laminarin + virus) was 12.546. The RQ1 ([1]; 24 hr, Laminarin alone) was 13.152, the RQ2 ([1]; 24 hr, Laminarin alone) was 13.329 and the RQ3 ([1]; 24 hr, Laminarin alone) was 14.033. For the same substance, the RQ mean ([1]; 24 hr, Laminarin alone) was 13.505, the RQ1 ([1]; 48 hr, Laminarin + virus) was 24.083 and the RQ2 ([1]; 48 hr, Laminarin + virus) was 18.519. The RQ3 ([1]; 48 hr, Laminarin + virus) was 21.352, the RQ mean ([1]; 48 hr, Laminarin + virus) was 21.318 and the RQ1 ([1]; 48 hr, Laminarin alone) was 27.467. The RQ2 ([1]; 48 hr, Laminarin alone) was 17.321, the RQ3 ([1]; 48 hr, Laminarin alone) was 23.298 and the RQ mean ([1]; 48 hr, Laminarin alone) was 22.695. For the same substance, the RQ1 ([1]; 72 hr, Laminarin + virus) was 28.726, the RQ2 ([1]; 72 hr, Laminarin + virus) was 29.558 and the RQ3 ([1]; 72 hr, Laminarin + virus) was 37.336. For the same substance, the RQ mean ([1]; 72 hr, Laminarin + virus) was 31.873, the RQ1 ([1]; 72 hr, Laminarin alone) was 29.447 and the RQ2 ([1]; 72 hr, Laminarin alone) was 23.000. For the same substance, the RQ3 ([1]; 72 hr, Laminarin alone) was 53.007, the RQ mean ([1]; 72 hr, Laminarin alone) was 35.151 and the RQ1 [2, 3] was 0.9025. The RQ2 [2, 3] was 11.021, the RQ3 [2, 3] was 12.323 and the RQ mean [2, 3] was 10.790. It also gave an RQ1 [2, 4] of 13.339, an RQ2 [2, 4] of 10.934 and an RQ3 [2, 4] of 11.013. The RQ mean [2, 4] was 11.762, the RQ1 [2, 5] was 13.750 and the RQ2 [2, 5] was 14.763. For the same substance, the RQ3 [2, 5] was 13.300, the RQ mean [2, 5] was 13.938 and the RQ1 [2, 6] was 13.085. For the same substance, the RQ2 [2, 6] was 11.438, the RQ3 [2, 6] was 12.395 and the RQ mean [2, 6] was 12.306. The RQ1 [2, 7] was 31.999, the RQ2 [2, 7] was 13.498 and the RQ3 [2, 7] was 29.839. It also gave an RQ mean [2, 7] of 25.112, an RQ1 [2, 8] of 25.291 and an RQ2 [2, 8] of 0.8970. For the same substance, the RQ3 [2, 8] was 28.993, the RQ mean [2, 8] was 21.085 and the RQ1 [2, 9] was 45.838. It also gave an RQ2 [2, 9] of 96.757, an RQ3 [2, 9] of 93.370 and an RQ mean [2, 9] of 78.655. The RQ1 [2, 10] was 53.674, the RQ2 [2, 10] was 42.556 and the RQ3 [2, 10] was 49.901. It also gave an RQ mean [2, 10] of 48.710.
